This note sets out measurements from article PMC10214526, “Semisynthetic LC3 Probes for Autophagy Pathways Reveal a Noncanonical LC3 Interacting Region Motif Crucial for the Enzymatic Activity of Human ATG3” (ACS Central Science, 2023).

In one test the test system is ATG3. The experiment in a line: Reaction (cross-linking) of Ubl activity-based probes with recombinant ATG3 and variants. It is filed as biochemical, human. The note with it: probe 15 μM; ATG3 wt, C264A and ΔLIR 5 μM; SDS-PAGE (Figure S9).
Another test deals with ATG3 C1 alanine variants. Put plainly: Alanine screen: cross-linking of probe 2 with ATG3 C1 alanine variants. In kind it is biochemical, human. The conditions noted are these: probe 2 15 μM, PBS, 37 °C, 30 min, n = 2. As for the experimental part: Figure 4 Dissection of interactions between GABARAP and LIR^ATG3 by alanine scanning. GABARAP probe 2 (15 μM) was reacted with ATG3 C1 alanine variants (15 μM) for 30 min. Coomassie Blue stained SDS-PAGE gel showing modification of ATG3 C1 variants with GABARAP methyl fumarate. The indicated ATG3 residues were mutated to alanine. Cross-linking efficiency was estimated by gel densitometry and normalized to the reaction with ATG3 C1. Data are presented as average values ± s.d. n = 2 independent experiments. Full-gel images are available in the Supplementary Information.
Farnung et al. Supplementary Information
SDS-PAGE (8-16%, Bio-Rad) and visualized by Coomassie staining. Gel bands were quantified by gel densitometry using ImageLab (Bio-Rad).
ATG3 C1 (15 μM) was mixed with GABARAP methyl fumarate 2 (15 μM) in PBS, and the reaction mixture was incubated at 37 °C for 30 min. The reaction was quenched by addition of 2x Laemmli buffer and boiled at 95 °C for 5 min. Samples were resolved by SDS-PAGE (8-16%, Bio-Rad) and visualized by Coomassie staining. Gel bands were quantified by gel densitometry using ImageLab […]
3.9. Structure prediction […]
! ! ( )"% - ) ( $&, . "#*( *"&% % *! "#*( * &% %*( * +% ( ( + '( ))+( ! )&#+*"&%- )*("*+( * -"*! * % %*(" + *&& * "% (+ ' '*" ! […]

For a further test, the system named is Ube2K. Put plainly: Reaction of Ubl probes with ubiquitin E2 Ube2K. It is filed as biochemical. The conditions noted are these: probe 15 μM, Ube2K 15 μM, 1 h, SDS-PAGE. How it is done: Figure 1 Modification of ATG3 with GABARAP ABPs depends on LIR^ATG3. a. Characterization of GABARAP activity-based probes, 1 and 2, obtained by hydrazide-acylation. Deconvoluted mass-spectrum (ESI) of GABARAP(ΔG116)–NHNH α-chloroacetyl 1. Expected mass 13707 Da. Deconvoluted mass-spectrum (ESI) of GABARAP(ΔG116)–NHNH methyl-fumarate 2. Expected mass 13743 Da. b. […] The reaction was allowed to proceed for 1 h and was analyzed by SDS-PAGE and Coomassie Blue staining. c. ColabFold-predicted structure of the protein-complex of ATG3 and GABARAP. Side-chain atoms are shown for the predicted LIR motif in ATG3 (90–112). d. Reaction of 2 (15 μM) with ATG3 variants C1, C0, and ΔLIR (15 μM). ATG3 C1 contains only active-site cysteine C264. ATG3 C0 contains no cysteines. ATG3 ΔLIR lacks amino acids 95–111. Reaction was allowed to proceed for 1 h and was analyzed by SDS-PAGE and Coomassie Blue staining. […]
Farnung et al. Supplementary Information and monitored using LC-MS analysis. […]
SUMO-GABARAP/LC3A-Mxe GyrA-His6 fusion after Ni-NTA purification was dialyzed against intein cleavage buffer (25 mM HEPES, 500 mM NaCl, 1 mM EDTA pH 7.2 at 4 °C). […] The solution was allowed to stand at room temperature and monitored using LC-MS analysis. […]
Ubl probes (15 μM) were mixed with E2s (15 μM) in PBS. […] If required, gel bands were quantified by gel densitometry using ImageLab (Bio- […]

As to “GABARAP(ΔG116)–NHNH methyl-fumarate [compound 2]”, the “LIR dependence of ATG3 wild-type modification” value in the test on ATG3 is on record as “dependent on LIRATG3”. For the same substance, the “Cross-linking with ATG3 D109 or T110 mutants” value in the test on ATG3 C1 alanine variants (D109 or T110 to alanine, ATG3 C1 variant 15 μM) is “almost no effect on reaction efficiency”. In addition, the “Cross-linking with ATG3 E95 and I97 mutants” value with ATG3 C1 alanine variants (E95 and I97 to alanine, ATG3 C1 variant 15 μM) was “severely diminish cross-linking”. For the same substance, the “Cross-linking with ATG3 V108A” value in the test with ATG3 C1 alanine variants (V108A, ATG3 C1 variant 15 μM, relative to ATG3 C1) is “significantly reduced the cross-linking efficiency”. Moreover, in the test with ATG3 C1 alanine variants (W107A, ATG3 C1 variant 15 μM, relative to ATG3 C1), the “Cross-linking with ATG3 W107 mutant” value is “almost completely abrogated the reaction”. The “Cross-linking with other ATG3 alanine mutants” value with ATG3 C1 alanine variants (majority of the other screened residues) is on record as “at least some impact on the conjugation with GABARAP”. In addition, the “Reaction with Ube2K” value with Ube2K is recorded as “did not react”.
